The values that follow come from US12678423B2, “Therapeutic agent for amyotrophic lateral sclerosis and composition for treatment” (KEIO UNIVERSITY, priority 2016, dated 2026).

In experiment [1] the test system is motor neurons induced to differentiate from iPS cells derived from ALS patients (FUS-ALS) having a mutation in FUS. Briefly: Ectopic localization of FUS protein in the cytoplasm, FUS-ALS motor neurons. Type of experiment: cell-based, human. The source says: Therefore, on day 40 from the start of differentiation induction, each differentiation-induced motor neuron in Example I-1 was immunostained and the localization of FUS protein in the cytoplasm was examined.
(§1) Using the differentiation-induced motor neurons in Example I-1, drugs which cause the ALS phenotype to be restored were screened from existing drug libraries with the neurite length, ectopic localization of FUS protein, stress granule formation, LDH leakage ratio, CV-caspase 3-positive ratio, phosphorylated TDP-43 protein inclusion formation, and the like as indices.
(§2) As a result of the screening, ropinirole was found as a promising therapeutic agent for ALS. Tables 5 and 6 show the improvement ratio (%) in the ALS phenotype due to adding ropinirole to the medium. Here, ropinirole was added to the medium on days 35 to 40 from the start of the differentiation induction of each iPS cell. Here, it is assumed that days 35 to 40 from the start of differentiation induction correspond to the early stage of the ALS disease.
(§3) The improvement ratio (%) of the ALS phenotype was calculated by Equation (1).
(§4) [formula] [In Equation (1), A represents a measurement value of motor neurons induced to differentiate from iPS cells derived from ALS patients in the absence of ropinirole, and B represents a measurement value of motor neurons induced to differentiate from iPS cells derived from ALS patients in the presence of ropinirole, and C represents a measurement value of motor neurons induced to differentiate from iPS cells derived from healthy subjects in the absence of ropinirole.]
(§5) Subsequently, in the same manner as above, the efficacy in cases of administering lower concentrations of ropinirole was evaluated.
(§6) Each drug was added to the medium at a final concentration of 10 μM.

The test system is the same in experiment [2]. Briefly: Stress granule formation (G3BP immunostaining), FUS-ALS motor neurons. It counts as cell-based, human. On the procedure:
On day 40 from the start of differentiation induction, the formation of stress granules was examined using each differentiation-induced motor neuron in Example I-1. The detection of stress granules was performed by immunostaining with G3BP, which is a marker of stress granules.
as §1, §2, §3, §4, §5, §6

Where [3] appears, read: final concentration 0.1 μM, added days 35 to 40.
[4] abbreviates: final concentration 1 μM, added days 35 to 40.
[5] abbreviates: final concentration 10 μM, added days 35 to 40.

Consider `CCCN(CCC)CCc1cccc2c1CC(=O)N2` [Ropinirole, 4-(2-di-n-propylaminoethyl)-2(3H)-indole], for which the “Ectopic localization of FUS protein improvement ratio” value in experiment [1] (final concentration 0.1 nM) is reported as 20.2%; in experiment [1] (final concentration 1 nM), 45.8%; in experiment [1] (final concentration 10 nM), 51.2%; in experiment [1] (setting [3]), 55.8%; in experiment [1] (setting [4]), 54.3%; in experiment [1] (setting [5]), 74.4%. For the same molecule, the “Stress granule formation improvement ratio” value is listed as 8.2% in experiment [2] (final concentration 0.1 nM); 23.2% in experiment [2] (final concentration 1 nM); 39.3% in experiment [2] (final concentration 10 nM); 36.6% in experiment [2] (setting [3]); 34.4% in experiment [2] (setting [4]); 66.1% in experiment [2] (setting [5]).
